Among the data in ChEMBL document CHEMBL5303711, “ECBD screening data for assay EOS300108” (2023) are CC50 values, retold here.

Structures are written as SMILES. Activity calls are given as the source filed them. No rule for the calls is given here. A value given as a limit tells only on which side of the number the result lay.

A short description of the series: Cytotoxicity activity against human HepG2 cells assessed by CellTiter-Glo luminescent cell viability assay. Conditions: HepG2 cells, read-out: IC50 relative. On the set-up: assay stage confirmatory assay, source tissue liver. Type of series: toxicity, cell-based.

With `CN1CCC(c2c[nH]c3ccc(NC(=O)c4ccc(F)cc4)cc23)CC1`, the CC50 is 14.2 µM (inactive).
The same measure for `O=C(O)c1ccc2c3c1cccc3c(=O)n1c3ccccc3nc21`: 3.3 µM (active); for `O=C(NC(NC(=S)Nc1ccc(F)c([N+](=O)[O-])c1)C(Cl)(Cl)Cl)C(c1ccccc1)c1ccccc1` (configuration not stated): 6.3 µM (active); for `Cc1c(C(=O)c2cccc3ccccc23)c2cccc3c2n1[C@H](CN1CCOCC1)CO3`: 3.2 µM (active).
With `COc1cc(/C=C2\CCCN([C@@H](C)c3ccc(F)cc3)C2=O)ccc1-n1cnc(C)c1`, the CC50 is 12.8 µM (active).
Regarding `C=CC(=O)Nc1cccc(Oc2nc(Nc3ccc(N4CCN(C)CC4)cc3OC)ncc2Cl)c1`, the CC50 was 2.2 µM (active).
For `COc1cc(N2CCC(O)CC2)ccc1Nc1cc(Nc2ccccc2S(=O)(=O)C(C)C)c2cc[nH]c2n1` the value was 12.9 µM (active).
The same measure for `O=C(NCCO)c1cccc(-c2cc(Nc3ccc(OC(F)(F)F)cc3)ncn2)c1`: 19.4 µM (inactive); for `C[C@]12CCC(=O)C=C1CC[C@@H]1[C@@H]2CC[C@]2(C)C(c3cccnc3)=CC[C@@H]12`: 28 µM (inactive); for `c1ccc(CCCN2CCN(CCOC(c3ccccc3)c3ccccc3)CC2)cc1`: 9.1 µM (active).
`Cc1ccc2c(c1)C1(CCN(CCc3nc(-c4ccccc4)oc3C)CC1)OC(=O)N2`: the CC50 was 11.2 µM (active).
Take `Cc1csc(NC(=O)CSc2ccc(-c3ccccc3)nn2)n1`: the CC50 was 14.7 µM (inactive).
For `Cn1cc(C2=C(c3cn(CCCSC(=N)N)c4ccccc34)C(=O)NC2=O)c2ccccc21` the value was 1.4 µM (active); for `O=C1NCCSc2c1sc1ccc(O)cc21`, 1 µM (active); for `CCOC(=O)c1cnc2ccc(-c3cncc(NS(=O)(=O)c4ccccc4)c3)cn12`, 3.8 µM (active).
For `CNc1nc(-c2ccc3c(N)n[nH]c3c2)cc(N2C[C@@H](C(=O)NC3CCCCC3)CC[C@H]2C)n1` the value was 50 µM (inactive); for `O=c1cc(N2CCOCC2)oc2c(-c3cccc4c3sc3ccccc34)cccc12`, 7.1 µM (active).
`COc1cc2c(cc1-c1c(C)noc1C)ncc1[nH]c(=O)n([C@H](C)c3ccccn3)c12`: the CC50 is 1.4 µM (active).
The same measure for `COc1ccc2cc(S(=O)(=O)N[C@H](CC(=O)N[C@H](Cc3ccc(CN4[C@H](C)CCC[C@@H]4C)cc3)C(=O)N(C)C(C)C)c3ccc4c(c3)OCO4)ccc2c1`: 4.1 µM (active); for `CC(C)(Cc1ccc2ccccc2c1)NC[C@@H](O)COc1cccc(Cl)c1C#N`: 1.3 µM (active); for `COc1ccc(N(C(=O)Oc2c(C)cccc2C)c2ccnc(Nc3ccc(N4CCN(C)CC4)cc3)n2)c(OC)c1`: 3.3 µM (active).
The same measure for `C[C@@H]1CN(CC(=O)Nc2ccc3c(c2)Cc2cccc(-c4cc(=O)cc(N5CCOCC5)o4)c2S3)C[C@H](C)O1`: 17.8 µM (inactive); for `Cc1cc(NC(=O)c2cccc(NC(=O)/C=C/CN(C)C)c2)ccc1Nc1nccc(-c2cccnc2)n1`: 3.8 µM (active).
Regarding `Cc1cccc(-c2[nH]c(C(C)(C)C)nc2-c2ccc3c(c2)OCO3)n1`, the CC50 is 2.8 µM (active).
The same measure for `CC(C)(C)c1ccccc1Oc1ncccc1NC(=O)Nc1ccc(OC(F)(F)F)cc1`: 7.9 µM (active).
For `CN(C)Cc1cccc(N/C(=C2\C(=O)Nc3cc(C(=O)N(C)C)ccc32)c2ccccc2)c1` the value was 10 µM (active); for `O=C(Nc1ccc([N+](=O)[O-])cc1O)Nc1ccccc1Br`, 8.9 µM (active); for `N#C/C(=C(/N)Sc1ccc(N)cc1)c1ccccc1C(F)(F)F`, 8.6 µM (active).
For `OCCCNc1cc(-c2ccnc(Nc3cccc(Cl)c3)n2)ccn1`, the CC50 is 1.4 µM (active).
In the case of `O=C(/C=C/c1ccc2ccccc2n1)c1ccncc1`, the CC50 was 1.1 µM (active).
The same measure for `Nc1nc(NCCNc2ncc(-n3ccnc3)c(-c3ccc(Cl)cc3Cl)n2)ccc1[N+](=O)[O-]`: 50 µM (inactive).
For `O=C(NCc1cccc(O)c1)Nc1nc(-c2ccncc2)cs1` the value was 10.7 µM (inactive).
For `COc1ccc(C[C@H](NC(=O)[C@H](C)NC(=O)CN2CCOCC2)C(=O)N[C@@H](Cc2ccccc2)C(=O)[C@@]2(C)CO2)cc1` the value was 0.5 µM (active); for `COc1cccc(-c2cc(F)ccc2[C@H]2Cc3nc(N)nc(C)c3C(=O)N2)n1`, < 0.1 µM (active).
Turning to `COc1cc(N2CCC(N(C)C)CC2)ccc1Nc1ncc(Cl)c(Nc2ccccc2P(C)(C)=O)n1`, the CC50 is 2.6 µM (active).
As for `COc1cc(N2CCN(C)CC2)ccc1Nc1nccc(-c2cn(C)c3cnccc23)n1`, the CC50 is 4.4 µM (active).
In the case of `C[C@@H]1CCCN1CCc1cc2cc(-c3ccc(C#N)cc3)ccc2o1`, the CC50 is 6.1 µM (active).
The same measure for `O=C(Nc1ccc2[nH]nc(-c3ccncc3)c2c1)[C@@H]1CCN(CC(=O)N2CCN(c3ccc(-c4ncccn4)cc3)CC2)C1`: 0.1 µM (active); for `CCn1c(=O)c(-c2ccc(Cl)cc2Cl)cc2cnc(Nc3ccc(N4CCNCC4)c(F)c3)nc21`: 1.5 µM (active); for `CCn1c(=O)c(-c2ccc(-c3cncs3)cc2Cl)cc2cnc(Nc3ccc(N4CCN(C)CC4)cc3)nc21`: 29 µM (inactive).
The same measure for `CC(C)c1cc2c(N3CCN(C4=NCC(C)(C)S4)CC3)ncnc2s1`: 10 µM (active); for `Oc1cc(-c2nc(-c3ccccc3)[nH]c2-c2ccncc2)ccc1Cl`: 0.6 µM (active); for `CCn1cc(-c2cccc(C(F)(F)F)c2)c2sc(C(=N)NC3CCS(=O)(=O)CC3)cc2c1=O`: 11.1 µM (active).
For `COC(=O)C[C@@H]1N=C(c2ccc(Cl)cc2)c2c(sc(C)c2C)-n2c(C)nnc21` the value was 0.1 µM (active); for `Cn1ncc2cc(-c3cnc(N)c(Cl)c3N3CCC4(CCNC4=O)CC3)ccc21`, 5.7 µM (active); for `COc1cc(-c2nn(CCN3CCC(N(C)C)CC3)c3ncnc(N)c23)ccc1NC(=O)OC(C)(C)C`, 2.1 µM (active).
With `CC(C)(O)CNc1ncc(-c2ccnc(Nc3ccnc(Cl)c3)n2)c(CC2CC2)n1`, the CC50 was 4 µM (active).
Consider `O=C(Nc1cccc(Nc2ncc(Br)c(NCCc3c[nH]cn3)n2)c1)N1CCCC1`, for which the CC50 is 3.3 µM (active).
For `O=C(NC1(c2ccccc2)CC1)c1c(CN2CCC(N3CCCCC3)CC2)c(-c2cccc(C(F)(F)F)c2)nc2cc(Br)ccc12` the value was 2.6 µM (active).
The same measure for `CCOC(=O)c1cnn(-c2ccc(NC(=O)C(Cl)=C(Cl)Cl)cc2)c1C(F)(F)F`: 1 µM (active); for `COc1cc(N2CCC(N)CC2)ccc1Nc1ncc(Cl)c(-c2c[nH]c3ccccc23)n1`: 4.2 µM (active); for `Cc1nc(Nc2cnn(C3CCNCC3)c2)nc2c1N(C)C(=O)c1cc3ccccc3cc1N2C`: 4.5 µM (active).
`CC[S+]([O-])c1nc(-c2cccc(OCc3ccccc3)c2)cc(C(F)(F)F)n1` (configuration not stated): the CC50 was 5.3 µM (active).
For the compound `COCCCN(C(=O)CCl)c1nc(-c2ccc(OC)cc2)cs1`, the CC50 was 1.5 µM (active).
For `CCCc1cc(C)[nH]c(=O)c1CNC(=O)c1cc(-c2ccc(N3CCN(C)CC3)nc2)nc2c1cnn2C(C)C` the value was 7.5 µM (active); for `COc1ccc(N(C(=O)Nc2c(C)cccc2C)c2cc(Nc3ccc(N4CCN(C)CC4)cc3)ncn2)c(OC)c1`, 6.1 µM (active).
For `CC(C)Oc1cc(Nc2nc(N[C@@H](C)c3ccc(F)cn3)ncc2Cl)n[nH]1` the value was 2.6 µM (active); for `Cc1cc(CS(=O)(=O)c2ccccc2)cc(OCc2ccc(CN3CCC[C@@H]3CO)cc2)c1`, 7.9 µM (active).
The same measure for `O=C(Nc1ccccc1-c1cn2c(CN3CCNCC3)csc2n1)c1cnc2ccccc2n1`: 1.6 µM (active); for `CNC(=O)c1c(F)cccc1Nc1nc(Nc2cc3c(cc2OC)CCN3C(=O)CN(C)C)nc2[nH]ccc12`: 3.6 µM (active); for `Cc1ccc2nc(NCCN)c3ncc(C)n3c2c1`: 1.9 µM (active).
Consider `COc1ccc2c(c1)C(C(=O)N(Cc1ccc(N(C)C)cc1)c1ccc(C(C)C)cc1)CCC2` (configuration not stated), for which the CC50 was 23.2 µM (inactive).
For `N#Cc1ccc(CNC(=O)CCCCCN2CCN(c3ccccc3-c3ccccc3)CC2)cc1`, the CC50 is 12.3 µM (active).
For the compound `O=C1NCCc2[nH]c(-c3ccncc3)cc21`, the CC50 is 0.9 µM (active).
The same measure for `O=C(O)c1ccc2c(c1)nc(Nc1cccc(Cl)c1)c1ccncc12`: 5 µM (active); for `CC[C@@H](N)CNc1ccnc(-c2cc(-c3cnn(C)c3)ccc2O)n1`: 1.2 µM (active).
With `CN(C)CCN(C)CCc1ccc(Cl)c(Cl)c1`, the CC50 is 15.3 µM (inactive).
As for `CC(C)(C)NC(=O)[C@@H]1C[C@@H]2CCCC[C@@H]2CN1CC(O)[C@H](Cc1ccccc1)NC(=O)[C@@H](CC(N)=O)NC(=O)c1ccc2ccccc2n1` (some centres not stated), the CC50 is 15.7 µM (inactive).
For `Cc1c(O)cccc1C(=O)NC(CSc1ccccc1)C(O)CN1CC2CCCCC2CC1C(=O)NC(C)(C)C` (configuration not stated) the value was 11.3 µM (active).
For `CC(C)c1cnn2c(NCc3ccccc3)cc(NC[C@H]3CCNC[C@@H]3O)nc12` the value was 0.8 µM (active); for `CN(C)C[C@@H]1CCn2cc(c3ccccc32)C2=C(C(=O)NC2=O)c2cn(c3ccccc23)CCO1`, 3 µM (active).
For `Cc1c(NC(=O)OC[C@@H]2COCCN2)cn2ncnc(Nc3ccc4c(cnn4Cc4cccc(F)c4)c3)c12` the value was 9 µM (active); for `CCCc1ccc(-c2ccc(N(C[C@@H](N)[C@@H](C)CC)C(=O)[C@@H]3C[C@H]3c3ccccn3)cc2)cc1`, 1.6 µM (active).
With `CC(C)N(CCC(=O)c1ccc2ccccc2c1)Cc1ccccc1`, the CC50 was 12.9 µM (active).
With `Cc1ccc([N+](=O)[O-])cc1S(=O)(=O)N(C)/N=C/c1cnc2ccc(Br)cn12`, the CC50 was < 0.1 µM (active).
With `O=C(c1cccs1)c1no[n+]([O-])c1C(=O)c1cccs1`, the CC50 was 1.8 µM (active).
As to `NS(=O)(=O)c1ccc(S(=O)(=O)Nc2cccc3c(Cl)c[nH]c23)cc1`, the CC50 is 13.6 µM (inactive).
